Data taken from patent US10485235B2, “Aryloxypyrimidinyl ethers as herbicides” (FMC Corporation, priority 2015, dated 2019).

Tests used:
Format in all cases: in vivo
[1] = tested on: barnyardgrass (Echinochloa crus-galli); experiment: Test A preemergence, barnyardgrass; settings: Preemergence, 0 to 100 scale (0 no effect, 100 complete control)
Summary of the method: (§1)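 For postemergence, one- to two-leaf plants 2–10 cm tall were sprayed; for preemergence, seeded loam–sand soil got a directed spray. Both used compound in a non-phytotoxic, surfactant-containing solvent, with visual injury ratings (0–100) after roughly 10 greenhouse days.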

kochia (Kochia scoparia) [2] = experiment: Test A preemergence, kochia; settings: Preemergence, 0 to 100 scale (0 no effect, 100 complete control)
Summary of the method: as §1

[3] = tested on: ragweed (common ragweed, Ambrosia elatior); experiment: Test A preemergence, ragweed; settings: Preemergence, 0 to 100 scale (0 no effect, 100 complete control)
Summary of the method: as §1

[4] = tested on: ryegrass, Italian (Italian ryegrass, Lolium multiflorum); experiment: Test A preemergence, Italian ryegrass; settings: Preemergence, 0 to 100 scale (0 no effect, 100 complete control)
Summary of the method: as §1

[5] = tested on: foxtail, giant (giant foxtail, Setaria faberii); experiment: Test A preemergence, giant foxtail; settings: Preemergence, 0 to 100 scale (0 no effect, 100 complete control)
Summary of the method: as §1

[6] = tested on: pigweed (Amaranthus retroflexus); experiment: Test A preemergence, pigweed; settings: Preemergence, 0 to 100 scale (0 no effect, 100 complete control)
Summary of the method: as §1

[7] = tested on: barnyardgrass (Echinochloa crus-galli); experiment: Test A postemergence, barnyardgrass; settings: postemergence, 0 to 100 scale, 0 is no effect, 100 is complete control, approximately 10 days
Summary of the method: as §1

kochia (Kochia scoparia) [8] = experiment: Test A postemergence, kochia; settings: postemergence, 0 to 100 scale, 0 is no effect, 100 is complete control, approximately 10 days
Summary of the method: as §1

[9] = tested on: ragweed (common ragweed, Ambrosia elatior); experiment: Test A postemergence, ragweed; settings: postemergence, 0 to 100 scale, 0 is no effect, 100 is complete control, approximately 10 days
Summary of the method: as §1

[10] = tested on: ryegrass, Italian (Italian ryegrass, Lolium multiflorum); experiment: Test A postemergence, Italian ryegrass; settings: postemergence, 0 to 100 scale, 0 is no effect, 100 is complete control, approximately 10 days
Summary of the method: as §1

[11] = tested on: foxtail, giant (giant foxtail, Setaria faberii); experiment: Test A postemergence, giant foxtail; settings: postemergence, 0 to 100 scale, 0 is no effect, 100 is complete control, approximately 10 days
Summary of the method: as §1

[12] = tested on: pigweed (Amaranthus retroflexus); experiment: Test A postemergence, pigweed; settings: postemergence, 0 to 100 scale, 0 is no effect, 100 is complete control, approximately 10 days
Summary of the method: as §1

[13] = tested on: wheat (Triticum aestivum); experiment: Test A postemergence, wheat; settings: postemergence, 0 to 100 scale, 0 is no effect, 100 is complete control, approximately 10 days
Summary of the method: as §1

corn (Zea mays) = experiment: Test A postemergence, corn; settings: postemergence, 0 to 100 scale, 0 is no effect, 100 is complete control, approximately 10 days
Summary of the method: as §1

[14] = tested on: blackgrass (Alopecurus myosuroides); experiment: Test A postemergence, blackgrass; settings: postemergence, 0 to 100 scale, 0 is no effect, 100 is complete control, approximately 10 days
Summary of the method: as §1

[15] = tested on: galium (catchweed bedstraw, Galium aparine); experiment: Test A postemergence, galium; settings: postemergence, 0 to 100 scale, 0 is no effect, 100 is complete control, approximately 10 days
Summary of the method: as §1

rice (Oryza sativa) = experiment: Test B flooded paddy test, rice; settings: 250 g ai/ha, Flood; visual rating after 13 to 15 days; scale 0 to 100, 0 is no effect, 100 is complete control
Summary of the method: (§2)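 Plants grown to the 2-leaf stage; pots flooded to 3 cm above soil and compounds applied directly into the paddy water, depth held throughout. After 13 to 15 days in the greenhouse, injury was rated visually against untreated controls on a 0–100 scale (0 no effect, 100 complete control).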

[16] = tested on: sedge, umbrella (small-flower umbrella sedge, Cyperus difformis); experiment: Test B flooded paddy test, umbrella sedge; settings: 250 g ai/ha, Flood; visual rating after 13 to 15 days; scale 0 to 100, 0 is no effect, 100 is complete control
Summary of the method: as §2

[17] = tested on: ducksalad (Heteranthera limosa); experiment: Test B flooded paddy test, ducksalad; settings: 250 g ai/ha, Flood; visual rating after 13 to 15 days; scale 0 to 100, 0 is no effect, 100 is complete control
Summary of the method: as §2

[18] = tested on: barnyardgrass (Echinochloa crus-galli); experiment: Test B flooded paddy test, barnyardgrass; settings: 250 g ai/ha, Flood; visual rating after 13 to 15 days; scale 0 to 100, 0 is no effect, 100 is complete control
Summary of the method: as §2

Compound	Plant response rating, Barnyardgrass ([1]; 125 g ai/ha)	Plant response rating, Barnyardgrass ([1]; 500 g ai/ha)	Plant response rating, Kochia (kochia (Kochia scoparia) [2]; 125 g ai/ha)	Plant response rating, Kochia (kochia (Kochia scoparia) [2]; 500 g ai/ha)	Plant response rating, Ragweed ([3]; 125 g ai/ha)	Plant response rating, Ragweed ([3]; 500 g ai/ha)	Plant response rating, Ryegrass, Italian ([4]; 125 g ai/ha)	Plant response rating, Ryegrass, Italian ([4]; 500 g ai/ha)	Plant response rating, Foxtail, Giant ([5]; 125 g ai/ha)	Plant response rating, Foxtail, Giant ([5]; 500 g ai/ha)	Plant response rating, Pigweed ([6]; 125 g ai/ha)	Plant response rating, Pigweed ([6]; 500 g ai/ha)	Plant response rating, Barnyardgrass ([7]; 125 g ai/ha)	Plant response rating, Barnyardgrass ([7]; 500 g ai/ha)	Plant response rating, Kochia (kochia (Kochia scoparia) [8]; 125 g ai/ha)	Plant response rating, Kochia (kochia (Kochia scoparia) [8]; 500 g ai/ha)	Plant response rating, Ragweed ([9]; 125 g ai/ha)	Plant response rating, Ragweed ([9]; 500 g ai/ha)	Plant response rating, Ryegrass, Italian ([10]; 125 g ai/ha)	Plant response rating, Ryegrass, Italian ([10]; 500 g ai/ha)	further results
Fc1cccc(Oc2ncc(Cl)cn2)c1OCCCC(F)(F)F [Compound 27]	90	100	70	100	0	20	40	90	80	100	90	100	50	80	80	100	0	10	0	30	Plant response rating, Foxtail, Giant ([11]; 125 g ai/ha): 20; Plant response rating, Foxtail, Giant ([11]; 500 g ai/ha): 80; Plant response rating, Pigweed ([12]; 125 g ai/ha): 50; Plant response rating, Pigweed ([12]; 500 g ai/ha): 60; Plant response rating, Wheat ([13]; 125 g ai/ha): 0; Plant response rating, Wheat ([13]; 500 g ai/ha): 10; Plant response rating, Corn (corn (Zea mays); 125 g ai/ha): 0; Plant response rating, Corn (corn (Zea mays); 500 g ai/ha): 10; Plant response rating, Blackgrass ([14]; 125 g ai/ha): 30; Plant response rating, Blackgrass ([14]; 500 g ai/ha): 60; Plant response rating, Galium ([15]; 125 g ai/ha): 30; Plant response rating, Galium ([15]; 500 g ai/ha): 90; Plant response rating, Rice (rice (Oryza sativa)): 0; Plant response rating, Sedge, Umbrella [16]: 70; Plant response rating, Ducksalad [17]: 90; Plant response rating, Barnyardgrass [18]: 0
Fc1cccc(Oc2ncc(Cl)cn2)c1OCCC(F)(F)F [Compound 29]	70	100	40	100	0	20	10	70	70	100	100	100	20	70	40	80	0	10	0	20	Plant response rating, Foxtail, Giant ([11]; 125 g ai/ha): 20; Plant response rating, Foxtail, Giant ([11]; 500 g ai/ha): 80; Plant response rating, Pigweed ([12]; 125 g ai/ha): 50; Plant response rating, Pigweed ([12]; 500 g ai/ha): 100; Plant response rating, Wheat ([13]; 125 g ai/ha): 0; Plant response rating, Wheat ([13]; 500 g ai/ha): 20; Plant response rating, Corn (corn (Zea mays); 125 g ai/ha): 0; Plant response rating, Corn (corn (Zea mays); 500 g ai/ha): 10; Plant response rating, Blackgrass ([14]; 125 g ai/ha): 0; Plant response rating, Blackgrass ([14]; 500 g ai/ha): 50; Plant response rating, Galium ([15]; 125 g ai/ha): 20; Plant response rating, Galium ([15]; 500 g ai/ha): 50; Plant response rating, Rice (rice (Oryza sativa)): 0; Plant response rating, Sedge, Umbrella [16]: 0; Plant response rating, Ducksalad [17]: 50; Plant response rating, Barnyardgrass [18]: 0
